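These data come from cells grown in 96-well plates and exposed to compound for 48 hours at five concentrations. Abbreviation: GI50, concentration required for 50% inhibition of growth.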 Activity calls are given as the source filed them. Rule as the data show it: active = GI50 up to about 1.1 µM and inactive = higher.

We go through four molecules from ChEMBL document CHEMBL1201862, “PubChem BioAssay data set” (2004).

Among the test systems are SF-268; SK-OV-3; HL-60; UACC-257; SF-539; NCI/ADR-RES; HCT-15; DU-145; OVCAR-3; OVCAR-4; MDA-N; OVCAR-5; HCC 2998; KM12; NCI-H460; MDA-MB-435; TK-10; HOP-62.
What all share (test): inhibition of tumour cell growth, NCI panel, 48 h

Take `N=C(N)SC(c1ccccc1)c1ccccc1`: the GI50 is 22.6 µM (inactive) in the experiment on SF-268; 32.3 µM (inactive) with SK-OV-3; 17.1 µM (inactive) in the experiment on HL-60; 14.2 µM (inactive) with UACC-257; 20.8 µM (inactive) in the experiment with SF-539; 17.2 µM (inactive) in the experiment with NCI/ADR-RES. The GI50 in the experiment with HCT-15 was 16.4 µM; with DU-145 it was 12.2 µM (inactive); in the experiment with OVCAR-3, 14.2 µM (inactive); with OVCAR-4, 18.3 µM (inactive); in the experiment with MDA-N, 13.6 µM (inactive); with OVCAR-5, 14.2 µM (inactive). Also, the GI50 in the experiment with HCC 2998 was 6.18 µM (inactive); in the experiment with KM12 it was 16.2 µM (inactive); in the experiment on NCI-H460, 16.6 µM (inactive); in the experiment with MDA-MB-435, 12.6 µM (inactive); in the experiment with TK-10 it was 14.5 µM (inactive); in the experiment with HOP-62 it was 19.6 µM (inactive).
Turning to `O=c1c2cccnc2[nH]c2ccc3scnc3c12`, the GI50 with SF-268 is > 10 µM (inactive); with SK-OV-3, > 10 µM (inactive); in the experiment on HL-60 it was 4.86 µM (inactive); with UACC-257, > 10 µM (inactive); in the experiment with SF-539 it was 6.95 µM (inactive); with NCI/ADR-RES, 8.91 µM (inactive). The GI50 in the experiment on HCT-15 was 4.92 µM; in the experiment with DU-145, > 10 µM (inactive); with OVCAR-3, 4.28 µM (inactive); in the experiment on OVCAR-4, 9.35 µM (inactive); in the experiment with MDA-N, > 10 µM (inactive); in the experiment on OVCAR-5 it was > 10 µM (inactive). The GI50 was > 10 µM (inactive) with HCC 2998; 6.7 µM (inactive) in the experiment on KM12; 7.01 µM (inactive) in the experiment on NCI-H460; 9.82 µM (inactive) in the experiment on MDA-MB-435; 4.86 µM (inactive) with TK-10; > 10 µM (inactive) in the experiment on HOP-62.
In the case of `CN(C)c1ccc(/C=C(\NC(=O)c2ccccc2)C(=O)Nc2cccc(C(=O)NCCCO)c2)cc1`, the GI50 with SF-268, with SK-OV-3, with HL-60, with UACC-257, in the experiment on SF-539 and in the experiment with NCI/ADR-RES was > 100 µM (inactive) in each case. The GI50 is more than 100 µM in the experiment on HCT-15; > 100 µM (inactive) in the experiment with DU-145; > 100 µM (inactive) in the experiment on OVCAR-3; > 100 µM (inactive) in the experiment on OVCAR-4; > 100 µM (inactive) in the experiment on MDA-N; > 100 µM (inactive) in the experiment with OVCAR-5. Moreover, the GI50 in the experiment on HCC 2998, in the experiment with KM12, with NCI-H460, with MDA-MB-435, in the experiment on TK-10 and with HOP-62 was > 100 µM (inactive) throughout.
For `C[N+]1([O-])C2CCC1CC(OC(=O)C(CO)c1ccccc1)C2` (configuration not stated), the GI50 is > 100 µM (inactive) in the experiment with SF-268; > 100 µM (inactive) with SK-OV-3; > 100 µM (inactive) with HL-60; > 100 µM (inactive) in the experiment with UACC-257; > 100 µM (inactive) in the experiment with SF-539; > 33.4 µM (inactive) with NCI/ADR-RES. The GI50 in the experiment with HCT-15 was more than 55.8 µM; in the experiment with DU-145, > 100 µM (inactive); in the experiment with OVCAR-3, > 100 µM (inactive); in the experiment on OVCAR-4 it was > 100 µM (inactive); with MDA-N it was > 100 µM (inactive); with OVCAR-5 it was > 100 µM (inactive). Moreover, the GI50 in the experiment on HCC 2998, in the experiment with KM12, with NCI-H460, in the experiment on MDA-MB-435, in the experiment on TK-10 and in the experiment on HOP-62 was > 100 µM (inactive) each time.
